Test results: patent US4612285A (priority 1982, dated 1986)
In brackets after ≈: the same amount, converted by molar mass. Entries after “also recorded” stand apart in the source; their conditions may differ.

Tests used:
[1] = Stability in heating; type: physicochemical; conditions: vacuum concentration preferably controlled below 60° C.
[2] = Solubility; type: physicochemical
[3] = system: Gram negative bacteria; test: Antimicrobial action, Gram negative bacteria (summary); type: cell-based; conditions: summary in words
Excerpt: (§1) (1) Antimicrobial properties:

[4] = system: Ehrlich ascites carcinoma; test: Effect on Ehrlich ascites carcinoma in mice; type: in vivo, mice (ddY, male, 6 weeks age)
Experimental: Ehrlich ascites carcinoma, 2×10^6 cells, is inoculated into mice (ddY, male, 6 weeks age) intra peritoneally, administered awamycin as shown in the table, number of survival dates is observed.
Administered date is designates as 0th day at tumor inoculation date. Number of survival dates is shown as mean value in 4-5 mice in one group. Increased life span is calculated according to the following equation. [formula]

[5] = system: yeast and fungi; test: Antimicrobial action, yeast and fungi (summary); type: cell-based; conditions: summary in words
Excerpt: as §1

[6] = system: Gram positive bacteria; test: Antibacterial action, Gram positive bacteria (summary); type: cell-based; conditions: summary in words
Excerpt: as §1

[7] = system: Sarcoma-180; test: Effect on Sarcoma-180 in mice; type: in vivo, mice (ICR, male, 6 weeks age)
Excerpt: Sarcome-180 (1×10^5 cells) is inoculated intra peritoneally in mice (ICR, male, 6 weeks age), administered the drug and the number of survival dates is observed.

[8] = system: Klebsiella pneumonia PCI 602; test: Antimicrobial properties (MIC); type: cell-based
Excerpt: as §1

[9] = system: Salmonella typhimurium; test: Antimicrobial properties (MIC); type: cell-based
Excerpt: as §1

[10] = system: Candida albicans; test: Antimicrobial properties (MIC); type: cell-based
Excerpt: as §1

[11] = system: Sarcina lutea PCI 1001; test: Antimicrobial properties (MIC); type: cell-based
Excerpt: as §1

[12] = system: Escherichia coli NIHJ; test: Antimicrobial properties (MIC); type: cell-based
Excerpt: as §1

[13] = system: Trichophyton ferrugineum; test: Antimicrobial properties (MIC); type: cell-based
Excerpt: as §1

[14] = system: Aspergillus nigar; test: Antimicrobial properties (MIC); type: cell-based
Excerpt: as §1

[15] = system: Pseudomonas aeruginosa P-3; test: Antimicrobial properties (MIC); type: cell-based
Excerpt: as §1

[16] = system: Shigella sonnai; test: Antimicrobial properties (MIC); type: cell-based
Excerpt: as §1

[17] = system: Staphylococcus aureus FDA 209P; test: Antimicrobial properties (MIC); type: cell-based
Excerpt: as §1

[18] = system: Bacillus subtilis PCI 219; test: Antimicrobial properties (MIC); type: cell-based
Excerpt: as §1

[19] = system: Saccharomyces sake; test: Antimicrobial properties (MIC); type: cell-based
Excerpt: as §1

[20] = system: Pyricularia oryzae; type: cell-based

With `COC(=O)C1C(O)C(C)C(O)C(C)/C=C(/C)C(=O)c2c(OC)c(C)c(O)c3c2C(=O)C(SC)=C(NC(=O)/C(C)=C\C=C\C(C)C(O)C(C)C1O)C3=O` (stereo not shown) [awamycin] the Stability in heating [1] was “stable in heating”, the Solubility ([2]; alcohols (methanol, ethanol), chlorinated methanes, ketones, esters, benzene, toluene, dimethylformamide, dimethyl sulfoxide) was “soluble” and the Solubility ([2]; diethyl ether) was “slightly soluble”. The Solubility ([2]; hexane and petroleum ether) was “insoluble”, the Solubility ([2]; water) was “slightly soluble” and the “action against Gram negative bacteria” value [3] was “no action”. For the same compound, the Increased life span ([4]; 6.3 mg/kg/day, administering date 1-9) was 73%, the “Number of survival date (median)” value ([4]; 6.3 mg/kg/day, administering date 1-9, control 22) was 38 and the Increased life span ([4]; 25 mg/kg/day, administering date 0, 1) was 100%. For the same compound, the “Number of survival date (median)” value ([4]; 25 mg/kg/day, administering date 0, 1,, control 20) was 40, the “antitumor activity / growth inhibitory activity” value ([4]; Ehrlich ascites carcinoma, in words) was “has antitumor activity; also recorded: exhibits growth inhibitory activity” and the “action against yeast and fungi” value [5] was “no action”. For the same compound, the “antibacterial action against some Gram positive bacteria” value [6] was “shows antibacterial action against some of Gram positive bacteria; also recorded: active against Gram positive bacteria”, the Increased life span ([7]; 0.75 mg/kg/day, administering day 1-9) was 64% and the “Number of survival dates (mean value)” value ([7]; 0.75 mg/kg/day, administering day 1-9, control 14) was 23. For the same compound, the Increased life span ([7]; 1.5 mg/kg/day, administering day 1-9) was 200%, the “Number of survival dates (mean value)” value ([7]; 1.5 mg/kg/day, administering day 1-9, control 14) was 42 and the Increased life span ([7]; 3.1 mg/kg/day, administering day 1-9) was over 329%. The “Number of survival dates (mean value)” value ([7]; 3.1 mg/kg/day, administering day 1-9, control 14) was over 60, the Increased life span ([7]; 6.3 mg/kg/day, administering day 1-9) was 186% and the “Number of survival dates (mean value)” value ([7]; 6.3 mg/kg/day, administering day 1-9, control 14) was 40. The Increased life span ([7]; 25 mg/kg/day, administering day 0, 1) was 100%, the “Number of survival dates (mean value)” value ([7]; 25 mg/kg/day, administering day 0, 1,, control 12) was 24 and the “antitumor activity / growth inhibitory activity” value ([7]; Sarcoma-180, in words) was “has antitumor activity; also recorded: exhibits growth inhibitory activity”. For the same compound, the MIC [8] was over 100 µg/mL, the MIC [9] was over 100 µg/mL and the MIC [10] was over 100 µg/mL. For the same compound, the MIC [11] was 0.05 µg/mL (≈ 0.0672 µM), the MIC [12] was over 100 µg/mL and the MIC [13] was over 100 µg/mL. The MIC [14] was over 100 µg/mL, the MIC [15] was over 100 µg/mL and the MIC [16] was over 100 µg/mL. The MIC [17] was 0.8 µg/mL (≈ 1.08 µM), the MIC [18] was 0.1 µg/mL (≈ 0.134 µM) and the MIC [19] was over 100 µg/mL. The MIC [20] was over 100 µg/mL.
